# Experimental data reported in patent US8889874B2, “Imidazolone-chalcone derivatives as potential anticancer agent and process for the preparation thereof” (Council of Scientific and Industrial Research, priority 2010, dated 2014).
# Read-outs that look alike come from different tables or passages of the source.
# Tests used:
# Assay type in all cases: cell-based, human
# BT-549 (breast) = test: NCI anticancer screen, SRB assay, 48 h; details: Homo sapiens
# Summary of the method: (§1)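 Sulforhodamine B protein assay read cell growth after 48 h of continuous compound exposure. Dose-response curves per cell line used at least five 10-fold-diluted concentrations, within a panel of fifty-three human lines from nine tumour types.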
# HCT-116 (colon) = test: NCI anticancer screen, SRB assay, 48 h; details: Homo sapiens
# Summary of the method: as §1
# M14 (melanoma) = test: NCI anticancer screen, SRB assay, 48 h; details: Homo sapiens
# Summary of the method: as §1
# [1] = system: NCI-H460 (non-small cell lung); test: NCI anticancer screen, SRB assay, 48 h; details: Homo sapiens
# Summary of the method: as §1
# [2] = system: NCI-H522 (non-small cell lung); test: NCI anticancer screen, SRB assay, 48 h; details: Homo sapiens
# Summary of the method: as §1
# OVCAR-3 (ovarian) = test: NCI anticancer screen, SRB assay, 48 h; details: Homo sapiens
# Summary of the method: as §1
# RXF 393 (renal) = test: NCI anticancer screen, SRB assay, 48 h; details: Homo sapiens
# Summary of the method: as §1
# SF-268 (CNS) = test: NCI anticancer screen, SRB assay, 48 h; details: Homo sapiens
# Summary of the method: as §1
# SF-295 (CNS) = test: NCI anticancer screen, SRB assay, 48 h; details: Homo sapiens
# Summary of the method: as §1
# SF-539 (CNS) = test: NCI anticancer screen, SRB assay, 48 h; details: Homo sapiens
# Summary of the method: as §1
# SK-MEL-2 (melanoma) = test: NCI anticancer screen, SRB assay, 48 h; details: Homo sapiens
# Summary of the method: as §1
# SK-MEL-28 (melanoma) = test: NCI anticancer screen, SRB assay, 48 h; details: Homo sapiens
# Summary of the method: as §1
# SK-OV-3 (ovarian) = test: NCI anticancer screen, SRB assay, 48 h; details: Homo sapiens
# Summary of the method: as §1
# SW-620 (colon) = test: NCI anticancer screen, SRB assay, 48 h; details: Homo sapiens
# Summary of the method: as §1
# TD-47D (breast) = test: NCI anticancer screen, SRB assay, 48 h; details: Homo sapiens
# Summary of the method: as §1
# UACC-62 (melanoma) = test: NCI anticancer screen, SRB assay, 48 h; details: Homo sapiens
# Summary of the method: as §1
# UO-31 (renal) = test: NCI anticancer screen, SRB assay, 48 h; details: Homo sapiens
# Summary of the method: as §1
# Breast cancer cell lines = test: NCI anticancer screen, SRB assay, panel summary; details: Homo sapiens
# Summary of the method: as §1
# CNS cancer cell lines = test: NCI anticancer screen, SRB assay, panel summary; details: for GI50: Homo sapiens
# Summary of the method: as §1
# Colon cancer cell lines = test: NCI anticancer screen, SRB assay, panel summary; details: for GI50: Homo sapiens
# Summary of the method: as §1
# [3] = system: Leukemia cancer cell lines; test: NCI anticancer screen, SRB assay, panel summary; details: Homo sapiens
# Summary of the method: as §1
# [4] = system: Melanoma cancer cell lines; test: NCI anticancer screen, SRB assay, panel summary; details: for GI50: Homo sapiens
# Summary of the method: as §1
# [5] = system: Non-small cell lung cancer cell lines; test: NCI anticancer screen, SRB assay, panel summary; details: Homo sapiens
# Summary of the method: as §1
# [6] = system: Ovarian cancer cell lines; test: NCI anticancer screen, SRB assay, panel summary; details: Homo sapiens
# Summary of the method: as §1
# [7] = system: Prostate cancer cell lines; test: NCI anticancer screen, SRB assay, panel summary
# Summary of the method: as §1
# Renal cancer cell lines = test: NCI anticancer screen, SRB assay, panel summary; details: Homo sapiens
# Summary of the method: as §1
# [8] = 48 h exposure, SRB, read-out: GI50
# [9] = read-out: pGI50 (-log of molar concentration causing 50% inhibition of net cell growth) (converted)
smiles,measurement,setting,value
"COc1cc(/C=C/C(=O)c2cccc(-n3cc(-c4cc(OC)c(OC)c(OC)c4)[nH]c3=O)c2)cc(OC)c1OC [5d, 4-(3,4,5-trimethoxyphenyl)-1-3-[(E)-3-(3,4,5-trimethoxyphenyl)-2-propenoyl]phenyl-2,3-dihydro-1H-2-imidazolone]",GI50,BT-549 (breast); [8],1520 nM
same,GI50,BT-549 (breast); [9],1510 nM
same,GI50,HCT-116 (colon); [8],740 nM
same,GI50,HCT-116 (colon); [9],741 nM
same,GI50,M14 (melanoma); [8],2120 nM
same,GI50,M14 (melanoma); [9],2140 nM
same,GI50,[1]; [8],1730 nM
same,GI50,[1]; [9],1740 nM
same,GI50,[2]; [8],1050 nM
same,GI50,[2]; [9],1050 nM
same,GI50,OVCAR-3 (ovarian); [8],1480 nM
same,GI50,OVCAR-3 (ovarian); [9],1480 nM
same,GI50,"RXF 393 (renal); RXF 393, 48 h exposure, SRB, read-out: GI50",1620 nM
same,GI50,"RXF 393 (renal); RXF-393, read-out: pGI50 (-log of molar concentration causing 50% inhibition of net cell growth) (converted)",1620 nM
same,GI50,SF-268 (CNS); [8],2200 nM
same,GI50,SF-268 (CNS); [9],2190 nM
same,GI50,SF-295 (CNS); [8],4960 nM
same,GI50,SF-295 (CNS); [9],5010 nM
same,GI50,SF-539 (CNS); [8],3120 nM
same,GI50,SF-539 (CNS); [9],3090 nM
same,GI50,SK-MEL-2 (melanoma); [8],3020 nM
same,GI50,SK-MEL-2 (melanoma); [9],3020 nM
same,GI50,SK-MEL-28 (melanoma); [8],1610 nM
same,GI50,SK-MEL-28 (melanoma); [9],1620 nM
same,GI50,SK-OV-3 (ovarian); [8],5120 nM
same,GI50,SK-OV-3 (ovarian); [9],5130 nM
same,GI50,SW-620 (colon); [8],1030 nM
same,GI50,SW-620 (colon); [9],1020 nM
same,GI50,TD-47D (breast); [8],3080 nM
same,GI50,TD-47D (breast); [9],3090 nM
same,GI50,UACC-62 (melanoma); [8],1870 nM
same,GI50,UACC-62 (melanoma); [9],1860 nM
same,GI50,UO-31 (renal); [8],960 nM
same,GI50,UO-31 (renal); [9],955 nM
same,GI50,"Breast cancer cell lines; Breast panel, log of concentration in mol/L causing 50% inhibition of net cell growth, read-out: mean graph midpoint (MG_MID) of Log10 GI50 (converted)",3980 nM
same,LC50,"Breast cancer cell lines; Breast panel, log of concentration leading to 50% net cell death, read-out: mean graph midpoint (MG_MID) of Log10 LC50 (converted)",45700 nM
same,GI50,"Breast cancer cell lines; five breast cancer cell lines, exposure at least 48 hrs, read-out: GI50, range over the panel",470 to 4190 nM
same,mean graph midpoint (MG_MID) of Log10 LC50,"CNS cancer cell lines; CNS panel, log of concentration leading to 50% net cell death",4.29
same,GI50,"CNS cancer cell lines; CNS panel, log of concentration in mol/L causing 50% inhibition of net cell growth, read-out: mean graph midpoint (MG_MID) of Log10 GI50 (converted)",3090 nM
same,GI50,"CNS cancer cell lines; six CNS cancer cell lines, exposure at least 48 hrs, read-out: GI50, range over the panel",1230 to 4960 nM
same,mean graph midpoint (MG_MID) of Log10 LC50,"Colon cancer cell lines; Colon panel, log of concentration leading to 50% net cell death",4.19
same,GI50,"Colon cancer cell lines; Colon panel, log of concentration in mol/L causing 50% inhibition of net cell growth, read-out: mean graph midpoint (MG_MID) of Log10 GI50 (converted)",1910 nM
same,GI50,"Colon cancer cell lines; seven colon cancer cell lines, exposure at least 48 hrs, read-out: GI50, range over the panel",740 to 1920 nM
same,GI50,"[3]; Leukemia panel, log of concentration in mol/L causing 50% inhibition of net cell growth, read-out: mean graph midpoint (MG_MID) of Log10 GI50 (converted)",380 nM
same,LC50,"[3]; Leukemia panel, log of concentration leading to 50% net cell death, read-out: mean graph midpoint (MG_MID) of Log10 LC50 (converted)",≥ 100000 nM
same,GI50,"[3]; two leukemia cancer cell lines (RPMI-8226 and K-562), exposure at least 48 hrs, read-out: GI50, range over the panel",230 to 590 nM
same,GI50,"[4]; Melanoma panel, log of concentration in mol/L causing 50% inhibition of net cell growth, read-out: mean graph midpoint (MG_MID) of Log10 GI50 (converted)",2040 nM
same,GI50,"[4]; nine melanoma cancer cell lines, exposure at least 48 hrs, read-out: GI50, range over the panel",1230 to 3020 nM
same,mean graph midpoint (MG_MID) of Log10 LC50,"[4]; Melanoma panel, log of concentration leading to 50% net cell death",4.67
same,GI50,"[5]; Non-small cell lung panel, log of concentration in mol/L causing 50% inhibition of net cell growth, read-out: mean graph midpoint (MG_MID) of Log10 GI50 (converted)",13800 nM
same,GI50,"[5]; nine non-small cell lung cancer cell lines, exposure at least 48 hrs, read-out: GI50, range over the panel",1050 to 14400 nM
same,GI50,"[6]; Ovarian panel, log of concentration in mol/L causing 50% inhibition of net cell growth, read-out: mean graph midpoint (MG_MID) of Log10 GI50 (converted)",2950 nM
same,LC50,"[6]; Ovarian panel, log of concentration leading to 50% net cell death, read-out: mean graph midpoint (MG_MID) of Log10 LC50 (converted)",75900 nM
same,GI50,"[6]; six ovarian cancer cell lines, exposure at least 48 hrs, read-out: GI50, range over the panel",1480 to 5120 nM
same,GI50,"[7]; Homo sapiens, log of concentration in mol/L causing 50% inhibition of net cell growth, read-out: mean graph midpoint (MG_MID) of Log10 GI50 (converted)",2630 nM
same,LC50,"[7]; Homo sapiens, log of concentration leading to 50% net cell death, read-out: mean graph midpoint (MG_MID) of Log10 LC50 (converted)",≥ 100000 nM
same,mean graph midpoint (MG_MID) of Log10 TGI,[7]; log of concentration resulting in total inhibition of net cell growth,4.73
same,GI50,"Renal cancer cell lines; Renal panel, log of concentration in mol/L causing 50% inhibition of net cell growth, read-out: mean graph midpoint (MG_MID) of Log10 GI50 (converted)",2630 nM
same,LC50,"Renal cancer cell lines; Renal panel, log of concentration leading to 50% net cell death, read-out: mean graph midpoint (MG_MID) of Log10 LC50 (converted)",27500 nM
same,GI50,"Renal cancer cell lines; eight renal cancer cell lines, exposure at least 48 hrs, read-out: GI50, range over the panel",960 to 20300 nM
